Test results from publication PMC7560342, “In Vitro and In Vivo Evaluation of the Toxic Effects of Dodecylguanidine Hydrochloride” (Toxics, 2020).
Values after ≈ are worked out from the molar mass of the structure shown.

How the values were obtained:
A549 cells = assay: cells; assay type: cell-based, Human; settings: 24 h exposure, WST assay; for IC50: Homo sapiens, read-out: IC50 (half inhibitory concentration by cell viability assay)
Experimental: Human adenocarcinomic alveolar epithelial (A549) cells were obtained from the Korea Cell Line Bank (Seoul, Korea). Cells were grown in RPMI 1640 medium (Thermo Fisher Scientific, Waltham, MA, USA), containing 10% heat-inactivated fetal bovine serum (Thermo Fisher Scientific, Waltham, MA, USA) and 1% penicillin-streptomycin (Thermo Fisher Scientific, Waltham, MA, USA) under standard cell culture conditions (37 °C, 5% CO2, and 90% humidity).
A549 cells (1 × 10^4 cells) were incubated in 96-well plates overnight, and various concentrations (1, 10, 100, 1000, and 5000 μg/mL) of the eight selected chemicals were added to the cell culture medium. After 24 h of incubation, cell morphology was observed by optical microscopy, and cell viability was evaluated using EZ-Cytox kit (DoGenBio, Seoul, Korea) by quantifying purple formazan crystals. The membrane integrity was examined using an EZ-lactate dehydrogenase (LDH) kit (DoGenBio, Seoul, Korea) to measure the LDH level released from the cytosol into the culture medium. Absorbance was measured using a microplate reader (Tecan, Salzburg, Austria) at a wavelength of 450 nm.

rat [1] = system: rat; parameters: method as in earlier work; settings: 1 h; cited from earlier work
rabbit = system: rabbit; parameters: method as in earlier work; settings: cited from earlier work
rat [2] = system: rat; parameters: method as in earlier work; settings: cited from earlier work

N#CNC(=N)N [CG, Cyanoguanidine]
IC50 (A549 cells): > 5000 µg/mL

N=C(N)N.N=C(N)N.O=C(O)O [GC, Guanidine carbonate]
IC50 (half inhibitory concentration by cell viability assay) (A549 cells): 1822 µg/mL

Cl.N=C(N)N [GH, Guanidine monohydrochloride]
IC50 (half inhibitory concentration by cell viability assay) (A549 cells): 2373 µg/mL

N=C(N)N.O=[N+]([O-])O [GN, Guanidine mononitrate]
IC50 (half inhibitory concentration by cell viability assay) (A549 cells): 3417 µg/mL

N=C(N)N.NS(=O)(=O)O [GS, Guanidine sulfamate]
IC50 (half inhibitory concentration by cell viability assay) (A549 cells): 2722 µg/mL

CN(C)C(=N)N(C)C [TMG, 1,1,3,3-Tetramethylguanidine]
IC50 (A549 cells): 1090 µg/mL (≈ 9.47 mM)

CCCCCCCCCCCCNC(=N)N [dodine, dodecylguanidine acetate]
Inhalation toxicity LC50 (rat [1]): 1.05 mg/L
Dermal toxicity LD50 (rabbit): > 2000 mg/kg
Acute oral toxicity LD50 (rat [2]): 1931 mg/kg
